# What was measured:
# wild radish = assay: Test D postemergence; type: in vivo, Raphanus raphanistrum; details: Raphanus raphanistrum, post-emergence
# In short: (§1)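 Greenhouse herbicide screen. Sowing into silt loam for preemergence application; foliar application to 2–18 cm seedlings in potting mix for postemergence. 0–100 visual control rating after 7–21 d.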
# pigweed = assay: Test F preemergence; type: in vivo, Amaranthus retroflexus; details: 21 days, scale 0 to 100
# In short: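 Seeds are planted in a blend of loam and sand. Chemicals in a surfactant-containing non-phytotoxic solvent are applied before emergence. After 21 days under greenhouse conditions, plants are compared with controls and scored visually, 0–100.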
# blackgrass = assay: Test D postemergence; type: in vivo, Alopecurus myosuroides; details: Alopecurus myosuroides, post-emergence, Postemergence, scale 0 to 100 (0 no effect, 100 complete control), read-out: Plant response rating, Blackgrass
# In short: as §1
# spring wheat [1] = assay: Test D preemergence; type: in vivo, Triticum aestivum; details: Triticum aestivum, pre-emergence
# In short: as §1
# winter wheat [2] = assay: Test D preemergence; type: in vivo, Triticum aestivum; details: Triticum aestivum, pre-emergence
# In short: as §1
# chickweed = assay: Test D postemergence; type: in vivo, Stellaria media; details: Stellaria media, post-emergence
# In short: as §1
# spring wheat [3] = assay: Test D postemergence; type: in vivo, Triticum aestivum; details: Triticum aestivum, post-emergence
# In short: as §1
# winter wheat [4] = assay: Test D postemergence; type: in vivo, Triticum aestivum; details: Triticum aestivum, post-emergence
# In short: as §1
# chamomile = assay: Test D preemergence; type: in vivo, Matricaria inodora; details: Tripleurospermum inodorum, pre-emergence
# In short: as §1
smiles,measurement,setting,value
"N#Cc1cccc(Oc2ncc(Cl)cn2)c1-n1cc(OCC(F)(F)F)cn1 [Compound 274, 3-[(5-chloro-2-pyrimidinyl)oxy]-2-[4-(2,2,2-trifluoroethoxy)-1H-pyrazol-1-yl]benzonitrile]",pest or weed control at 16 g/ha,"wild radish; 16 g ai/ha, scale 0-100, read-out: Plant response rating, Radish, Wild",70%
same,pest or weed control at 31 g/ha,"wild radish; 31 g ai/ha, scale 0 to 100 (0 no effect, 100 complete control), read-out: Plant response rating, Radish, Wild",70%
same,pest or weed control at 62 g/ha,"wild radish; 62 g ai/ha, scale 0 to 100 (0 no effect, 100 complete control), read-out: Plant response rating, Radish, Wild",70%
same,pest or weed control at 125 g/ha,"wild radish; 125 g ai/ha, scale 0 to 100 (0 no effect, 100 complete control), read-out: Plant response rating, Radish, Wild",90%
same,"Plant response rating, Pigweed",pigweed; 16 g ai/ha,100
same,"Plant response rating, Pigweed",pigweed; 31 g ai/ha,100
same,"Plant response rating, Pigweed",pigweed; 62 g ai/ha,100
same,"Plant response rating, Pigweed",pigweed; 125 g ai/ha,100
same,"Plant response rating, Pigweed",pigweed; 250 g ai/ha,100
same,pest or weed control at 62 g/ha,blackgrass; 62 g ai/ha,20%
same,pest or weed control at 16 g/ha,blackgrass; 16 g ai/ha,10%
same,pest or weed control at 31 g/ha,blackgrass; 31 g ai/ha,15%
same,pest or weed control at 125 g/ha,blackgrass; 125 g ai/ha,30%
same,plant injury at 16 g/ha,"spring wheat [1]; 16 g ai/ha, scale 0 (no effect) to 100 (complete control), read-out: Plant response rating, Wheat, Spring",0%
same,plant injury at 31 g/ha,"spring wheat [1]; 31 g ai/ha, scale 0 (no effect) to 100 (complete control), read-out: Plant response rating, Wheat, Spring",0%
same,plant injury at 125 g/ha,"spring wheat [1]; 125 g ai/ha, scale 0-100, read-out: Plant response rating, Wheat, Spring",55%
same,plant injury at 16 g/ha,"winter wheat [2]; 16 g ai/ha, scale 0 (no effect) to 100 (complete control), read-out: Plant response rating, Wheat, Winter",0%
same,plant injury at 31 g/ha,"winter wheat [2]; 31 g ai/ha, scale 0 (no effect) to 100 (complete control), read-out: Plant response rating, Wheat, Winter",0%
same,plant injury at 125 g/ha,"winter wheat [2]; 125 g ai/ha, scale 0-100, read-out: Plant response rating, Wheat, Winter",35%
same,pest or weed control at 16 g/ha,"chickweed; 16 g ai/ha, scale 0-100, read-out: Plant response rating, Chickweed",65%
same,pest or weed control at 31 g/ha,"chickweed; 31 g ai/ha, scale 0 to 100 (0 no effect, 100 complete control), read-out: Plant response rating, Chickweed",65%
same,pest or weed control at 62 g/ha,"chickweed; 62 g ai/ha, scale 0 to 100 (0 no effect, 100 complete control), read-out: Plant response rating, Chickweed",70%
same,pest or weed control at 125 g/ha,"chickweed; 125 g ai/ha, scale 0 to 100 (0 no effect, 100 complete control), read-out: Plant response rating, Chickweed",80%
same,plant injury at 16 g/ha,"spring wheat [3]; 16 g ai/ha, scale 0-100, read-out: Plant response rating, Wheat, Spring",10%
same,plant injury at 31 g/ha,"spring wheat [3]; 31 g ai/ha, scale 0 to 100 (0 no effect, 100 complete control), read-out: Plant response rating, Wheat, Spring",15%
same,plant injury at 62 g/ha,"spring wheat [3]; 62 g ai/ha, scale 0 to 100 (0 no effect, 100 complete control), read-out: Plant response rating, Wheat, Spring",15%
same,plant injury at 125 g/ha,"spring wheat [3]; 125 g ai/ha, scale 0 to 100 (0 no effect, 100 complete control), read-out: Plant response rating, Wheat, Spring",25%
same,plant injury at 16 g/ha,"winter wheat [4]; 16 g ai/ha, scale 0-100, read-out: Plant response rating, Wheat, Winter",10%
same,plant injury at 31 g/ha,"winter wheat [4]; 31 g ai/ha, scale 0 to 100 (0 no effect, 100 complete control), read-out: Plant response rating, Wheat, Winter",20%
same,plant injury at 62 g/ha,"winter wheat [4]; 62 g ai/ha, scale 0 to 100 (0 no effect, 100 complete control), read-out: Plant response rating, Wheat, Winter",20%
same,plant injury at 125 g/ha,"winter wheat [4]; 125 g ai/ha, scale 0 to 100 (0 no effect, 100 complete control), read-out: Plant response rating, Wheat, Winter",30%
same,pest or weed control at 16 g/ha,"chamomile; 16 g ai/ha, scale 0 (no effect) to 100 (complete control), read-out: Plant response rating, Chamomile",5%
same,pest or weed control at 62 g/ha,"chamomile; 62 g ai/ha, scale 0-100, read-out: Plant response rating, Chamomile",35%
same,pest or weed control at 125 g/ha,"chamomile; 125 g ai/ha, scale 0-100, read-out: Plant response rating, Chamomile",65%
